For experiment [1], the target named is T1, FAAH (Homo sapiens, UniProt O00519).
T1 construct: FAAH activity was assayed in the respective homogenates (Rat brain or Human brain); tissue Analytical Biological Services (ABS), Inc; host or cells: human brain cortex membrane homogenate, pooled from three donors
T1 sequence (O00519 1-579): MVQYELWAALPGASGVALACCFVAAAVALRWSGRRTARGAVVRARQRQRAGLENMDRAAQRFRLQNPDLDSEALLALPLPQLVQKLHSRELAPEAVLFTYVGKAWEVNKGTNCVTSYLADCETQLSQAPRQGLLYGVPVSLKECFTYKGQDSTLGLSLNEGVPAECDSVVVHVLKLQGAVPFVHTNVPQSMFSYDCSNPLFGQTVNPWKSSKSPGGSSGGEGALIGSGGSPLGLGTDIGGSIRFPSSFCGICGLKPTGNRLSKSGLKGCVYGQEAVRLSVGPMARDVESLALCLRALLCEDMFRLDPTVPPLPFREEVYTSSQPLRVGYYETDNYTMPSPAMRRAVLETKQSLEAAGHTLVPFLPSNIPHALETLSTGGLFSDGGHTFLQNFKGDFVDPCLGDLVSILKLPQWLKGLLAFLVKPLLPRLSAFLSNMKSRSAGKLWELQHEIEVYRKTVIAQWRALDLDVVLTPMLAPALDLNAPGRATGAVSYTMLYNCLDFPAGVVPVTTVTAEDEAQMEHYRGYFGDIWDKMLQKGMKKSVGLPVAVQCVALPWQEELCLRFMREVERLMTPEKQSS
As to the kind of experiment: FAAH activity in human brain membrane (HBM) homogenate, 3H-anandamide hydrolysis. Type of experiment: biochemical. To be noted: 10 min at 37° C., pH 6.5.
Method: (§1) To assess FAAH inhibition, compounds were tested in an assay using rat brain microsomes and an assay using human brain microsomes using the methods described below.
10 g of normal human brain cortex tissue pooled from three donors was purchased from Analytical Biological Services (ABS), Inc. (Wilmington, Del.). The tissue had been collected by ABS, Inc. ˜4 hrs post mortem and was flash frozen and stored at −80° C. The brain tissue was thawed and transferred to a large ceramic mortar on ice. 50 mL of ice-cold homogenization buffer (20 mM HEPES buffer, pH 7.0, with 1 mM MgCl2) was added to the mortar and the tissue was homogenized with a pestle. The homogenate was centrifuged at 36,500 g for 20 minutes at 4° C. The supernatants were discarded and the pellets re-suspended in homogenization buffer and centrifuged as before. The supernatants were again discarded and the pellets were re-suspended in 30 ml homogenization buffer and incubated in a 37° C. water bath for 20 min. The homogenate was then centrifuged as before. The supernatant was discarded and the membrane pellets were re-suspended in 30 ml resuspension buffer (50 mM Tris-HCl buffer, pH 7.4, containing 1 mM EDTA and 3 mM MgCl2). A Bradford Protein assay was performed to determine protein concentration. The protein suspension was aliquotted into screw cap Cryo tubes each containing ˜200 μL of suspension, flash frozen in liquid nitrogen and stored at −80° C. until used for the assay.
(§2) Samples were placed on ice to terminate the reactions. […] Radioactivity (corresponding to FAAH-catalyzed breakdown of ^3H-anandamide) found in aliquots (0.2 ml) of the aqueous phase was determined by liquid scintillation counting with quench correction.
(§3) The method of Wilson et al. was modified by acidifying the reaction mixtures by the addition of 10 μl of sodium phosphate solution [0.5M (pH 2.0)] after reactions were incubated at 37° C. for 10 min and chilled on ice. […] The columns were centrifuged and the eluate was counted as described by Wilson et al.

In experiment [2] the target is T2, FAAH (Rattus norvegicus, UniProt P97612).
T2 construct: FAAH activity was assayed in the respective homogenates (Rat brain or Human brain); from tissue; host or cells: rat brain membrane homogenate (Charles River CD strain)
T2 sequence (P97612 1-579): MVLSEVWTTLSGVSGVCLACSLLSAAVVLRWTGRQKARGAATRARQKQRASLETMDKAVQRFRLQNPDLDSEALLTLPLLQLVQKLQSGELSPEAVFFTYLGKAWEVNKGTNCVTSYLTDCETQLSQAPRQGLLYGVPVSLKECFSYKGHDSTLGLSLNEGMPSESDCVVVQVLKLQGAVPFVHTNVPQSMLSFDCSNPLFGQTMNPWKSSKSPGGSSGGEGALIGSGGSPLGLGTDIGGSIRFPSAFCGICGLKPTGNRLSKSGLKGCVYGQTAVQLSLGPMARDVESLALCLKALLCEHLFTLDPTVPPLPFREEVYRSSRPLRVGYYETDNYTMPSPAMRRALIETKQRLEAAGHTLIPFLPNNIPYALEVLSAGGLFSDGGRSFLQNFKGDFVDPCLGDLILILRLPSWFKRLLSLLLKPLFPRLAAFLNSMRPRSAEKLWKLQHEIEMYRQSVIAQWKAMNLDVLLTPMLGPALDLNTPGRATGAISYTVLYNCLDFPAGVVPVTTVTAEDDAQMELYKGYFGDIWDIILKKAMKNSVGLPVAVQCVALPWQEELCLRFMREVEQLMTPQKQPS
Briefly: FAAH activity in rat brain membrane (RBM) homogenate, 3H-anandamide hydrolysis. The format is biochemical. To be noted: 10 min at 37° C., pH 6.5.
Method: as §1
Nine adult rats (Charles River CD strain, female, 200 g) were anaesthetized with isofluorane and rapidly decapitated. Each brain was quickly removed and chilled in tubes (3 brains per tube) on ice. Total wet weight of the 9 brains was ˜18 g. 25 mL of homogenization buffer (20 mM HEPES buffer, pH 7.0, with 1 mM MgCl2) was added to each tube. The brains were homogenized on ice for 1 minute using an Omni GLH homogenizer (Omni International, Marietta, Ga.). The homogenates were transferred to three centrifuge tubes and centrifuged at 36,500 g for 20 minutes at 4° C. The supernatant was discarded and each pellet was re-suspended in 25 ml homogenization buffer. The resuspended material was again centrifuged (36,500g, 20 min at 4° C.). The pellets were combined by resuspension in 10 mL of homogenization buffer and incubated in a 37° C. water bath for 15 min. The tube was then placed on ice for 5 min followed by centrifugation at 36,500 g for 20 minutes at 4° C. The supernatant was discarded and the membrane pellet was then resuspended in 40 mL of resuspension buffer (50 mM Tris-HCl buffer, pH 7.4, containing 1 mM EDTA and 3 mM MgCl2). A Bradford Protein assay was performed to determine protein concentration. […]
as §2, §3

A word on the IC50: it is the concentration that inhibits the measured activity by half. A low value points to greater potency in that assay. In the case of `COc1ccc2c(c1)c(CC(=O)O)c(C)n2C(=O)c1ccc(Cl)cc1` [Indomethacin], inhibition in experiment [1] was half-maximal at 96 µM (IC50).

As for `Cc1onc(-c2ccccc2)c1-c1ccc(S(N)(=O)=O)cc1` [Valdecoxib, 4-(5-methyl-3-phenyl-isoxazol-4-yl)benzenesulfonamide], the IC50 in experiment [1] stood at 41 µM; in experiment [2], 280 µM.

For the compound `CS(=O)(=O)c1ccc(C2=C(c3ccccc3)C(=O)OC2)cc1` [Rofecoxib], the results for the IC50 in experiment [1] and in experiment [2] were 198 µM and 452 µM, respectively. For `Cc1ccc(-c2cc(C(F)(F)F)nn2-c2ccc(S(N)(=O)=O)cc2)cc1` [Celecoxib, 4-[[5-(p-tolyl)-3-(trifluoromethyl)-1H-pyrazol-1-yl]]benzenesulfonamide], it took 167 µM to reach half-maximal inhibition in experiment [2] (IC50).

For the origin of these results see patent US20060167075A1, “Modulators of FAAH” (priority 2005, published 2006).
